In general, IC50 refers to the concentration that inhibits the measured activity by half.

For data set [1], the target named is T1, human serum albumin (HSA) (Homo sapiens, UniProt P02768).
T1 construct: purchased Sigma-Aldrich/Merck A8763
The data set can be described thus: Tryptophan (Trp214) fluorescence quenching assay with HSA. It is filed as binding. Particulars: 1 μM HSA. On the procedure:
HSA contains only one tryptophan residue (Trp214), which is located in a hydrophobic pocket in subdomain IIA of the protein. When a compound binds to HSA, it can affect the local environment of Trp214, leading to a decrease in its fluorescence intensity.
Fluorescence measurements were carried out on a Fluoromax (Horiba Jobin Yvon, Longjumeau, France) spectrofluorometer using a 1 cm × 1 cm quartz cuvette. Samples contained 1 μM HSA and the complex concentration was varied between 0 and 18 μM. The measurements were carried out as titration. The excitation wavelength was 295 for the Trp214 quenching measurements, and the determined quenching constant for HSA–complex species (1:1) was obtained using the computer program HypSpec. Calculations always were based on data obtained from at least two independent measurements. Self-absorbance and inner filter effect had to be considered, and corrections were made as was described in our former works. ,

A short description of data set [2]: pH-dependent UV-vis spectrophotometry (solution speciation, pKa of aqua ligand). In kind it is physicochemical. Particulars: between pH 3 and 8, no spectral changes. The source says:
However, at pH > ∼8, the spectrum changes considerably (Figure ).
The isosbestic point indicates a single equilibrium process, which is most likely deprotonation of the coordinated aqua ligand in complex 4a. This process was studied in our previous work for similar fac-[Re(CO)3] complexes formed with (N,N)-bearing ligands, and the calculated pK a (H2O) is around 8. […] Similar pK a values in the presence and absence of the chloride ions indicate a low chloride affinity of the aqua complex. Based on these values, the fraction of [Re(CO)3(pth)(H2O)] is 100% at pH = 7.4. The analogous half-sandwich complex [Ru(cym)(pth)(H2O)]^+ was also characterized by high solution stability, and a similarly high pK a value (10.34 (0.2 M KCl)).
For the solution studies, an Agilent Cary 3500 spectrophotometer was utilized to obtain UV–vis spectra in the wavelength range of 200–1100 nm. The path length ( l ) was 1 cm in all cases. The concentrations of the complex were between 10 and 60 μM. For investigation of the effect of chloride ions, the samples contained 60 μM complex and 0–7300 equiv of Cl^–. For HSA-containing samples, complex concentrations were 60 μM, and 0.5 equiv of biomolecule (or 6 equiv of MIM) was added for kinetic studies, respectively. Individual samples contained 0–34 μM HSA. The computer program HypSpec was used to obtain equilibrium constants.

Another data set relates to Colo320 cells. The data set can be described thus: MTT cytotoxicity assay, Colo320. In kind it is cell-based, human. As to conditions: 72 h incubation. The procedure: Its cytotoxicity was determined in the human HeLa cervical cancer cell line, the drug-sensitive Colo205 and its resistant counterpart, the ABCB1 expressing Colo320 colon adenocarcinoma cancer cell lines, using the colorimetric 3-(4,5-dimethylthiazol-2-yl)-2,5-diphenyltetrazolium bromide (MTT) test. To investigate the selectivity toward cancer cells, the noncancerous fibroblast CCD-19Lu cell line was included.
Drug-sensitive Colo205 (ATCC-CCL-222) and ABCB1 (MDR1)-LRP expressing and doxorubicin-resistant Colo320/MDR-LRP (ATCC-CCL-220.1) human colonic adenocarcinoma cell lines were purchased from LGC Promochem (Teddington, U.K.). The cells were cultured in RPMI 1640 medium supplemented with 10% heat-inactivated fetal bovine serum, 2 mM L-glutamine, 1 mM Na-pyruvate, and 10 mM HEPES.
The tested compound was dissolved in DMSO to prepare a 5 mM stock solution, which was diluted in complete culture medium, to study the effect of compounds on cell growth of human colonic adenocarcinoma cell lines. Doxorubicin was used as the positive control. The cells were treated with a trypsin-versene (EDTA) solution. […] Cell growth was determined by measuring the optical density (OD) at 540/630 nm with a Multiscan EX ELISA reader (Thermo Labsystems, Cheshire, WA). […]

T1 sequence (P02768 25-609): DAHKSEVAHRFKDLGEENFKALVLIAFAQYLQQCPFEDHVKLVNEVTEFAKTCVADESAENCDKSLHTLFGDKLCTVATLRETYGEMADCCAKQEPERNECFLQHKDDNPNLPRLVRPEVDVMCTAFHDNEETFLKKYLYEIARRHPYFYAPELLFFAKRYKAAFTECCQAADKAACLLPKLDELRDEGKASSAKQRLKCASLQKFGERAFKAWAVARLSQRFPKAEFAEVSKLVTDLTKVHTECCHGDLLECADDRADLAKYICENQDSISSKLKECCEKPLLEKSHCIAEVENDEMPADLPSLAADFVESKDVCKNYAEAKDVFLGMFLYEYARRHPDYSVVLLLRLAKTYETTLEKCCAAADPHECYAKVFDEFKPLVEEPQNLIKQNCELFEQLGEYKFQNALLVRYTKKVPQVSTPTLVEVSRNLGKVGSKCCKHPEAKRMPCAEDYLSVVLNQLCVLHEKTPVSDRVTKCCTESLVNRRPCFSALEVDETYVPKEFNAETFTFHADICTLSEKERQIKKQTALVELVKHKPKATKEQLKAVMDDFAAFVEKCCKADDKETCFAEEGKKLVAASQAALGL

As to `N#Cc1ccccc1.[C-]#[O+].[C-]#[O+].[C-]#[O+].[O-]n1ccccc1=S.[Re+]` [complex 4, fac-[Re(CO)3(pth)(benzonitrile)]], the “log KQ quenching constant” value in data set [1] (0–18 μM complex, pH 7.4 (PBS), 25 °C) is listed as 6.3 ± 0.1. Further, the “degree of HSA fluorescence quenching” value in data set [1] (∼4 equivalents of complex, λEX 295 nm, pH 7.4) is reported as about 85%. The “integrity of the complex (aqua form) from UV-vis spectra” value in data set [2] was “remains intact”. Besides, the IC50 in the data set on Colo320 cells came out at 10.5 ± 0.85 µM.

Values taken from paper PMC12391994, “Synthesis of a fac-Tricarbonylrhenium(I) Complex with Pyrithione, Its Physicochemical Characterization, and Assessment of Biological Effects” (ACS Omega, 2025).
